The source of these data is patent publication US20250382250A1, “STILBENE DERIVATIVE AS AHR AGONIST AND USE THEREOF” (NANJING GRITPHARMACO., LTD., priority 2022, published 2025).

Marks after values point to notes of the source that are not given here.

Series [1] in a line: Ointment diffusion test, ex vivo rabbit skin. The series is classed as in vitro ADME. To be noted: ointments: 2# 1.2 wt %, 6# 1.2 wt %, benvitimod 1.0 wt %, 32° C. The method, then:
(§1) Test compounds: compound 2 #ointment, 1.2 wt %; compound 6 #ointment, 1.2 wt %; benvitimod ointment, 1.0 wt %;
• (1) Preparation of ex vivo rabbit skin • (2) Preparation of receiving liquid: 100 mL of polyethylene glycol 400 solution was brought to a final volume of 250 mL with normal saline. The mixture was mixed well and stored at 4° C. Before each permeation in the receiving compartment, the system was preheated to 32° C. • (3) In vitro transdermal test: A drug transdermal diffusion apparatus was used to fix the processed rabbit skin between the supply and receiving compartments, with the stratum corneum facing the supply compartment. A constant temperature water bath circulation at 32° C. was maintained. The system was equilibrated for 30 min. Upon each replacement of the receiving liquid, the air at the lower layer was exhausted, and the liquid droplets on the skin surface were removed with paper. 0.5 g of the ointment was evenly smeared in the supply compartment. The system was stirred with a magnetic stirring at a rotation speed of 600 r/min. At 0.5, 1, 2, 3, 4, 5, 7, 9, 12, and 24 h, 1 mL of sample liquid was taken out from the receiving compartment and transferred into a liquid phase vial, and simultaneously, an equal amount of fresh receiving liquid at the same temperature was added. The liquid phase detection was conducted to calculate the drug permeation rate.

For another series, the target named is T1, AhR (Homo sapiens, UniProt P35869).
T1 construct: expressed in transfected cells; host or cells: HepG2
T1 sequence (P35869 11-848): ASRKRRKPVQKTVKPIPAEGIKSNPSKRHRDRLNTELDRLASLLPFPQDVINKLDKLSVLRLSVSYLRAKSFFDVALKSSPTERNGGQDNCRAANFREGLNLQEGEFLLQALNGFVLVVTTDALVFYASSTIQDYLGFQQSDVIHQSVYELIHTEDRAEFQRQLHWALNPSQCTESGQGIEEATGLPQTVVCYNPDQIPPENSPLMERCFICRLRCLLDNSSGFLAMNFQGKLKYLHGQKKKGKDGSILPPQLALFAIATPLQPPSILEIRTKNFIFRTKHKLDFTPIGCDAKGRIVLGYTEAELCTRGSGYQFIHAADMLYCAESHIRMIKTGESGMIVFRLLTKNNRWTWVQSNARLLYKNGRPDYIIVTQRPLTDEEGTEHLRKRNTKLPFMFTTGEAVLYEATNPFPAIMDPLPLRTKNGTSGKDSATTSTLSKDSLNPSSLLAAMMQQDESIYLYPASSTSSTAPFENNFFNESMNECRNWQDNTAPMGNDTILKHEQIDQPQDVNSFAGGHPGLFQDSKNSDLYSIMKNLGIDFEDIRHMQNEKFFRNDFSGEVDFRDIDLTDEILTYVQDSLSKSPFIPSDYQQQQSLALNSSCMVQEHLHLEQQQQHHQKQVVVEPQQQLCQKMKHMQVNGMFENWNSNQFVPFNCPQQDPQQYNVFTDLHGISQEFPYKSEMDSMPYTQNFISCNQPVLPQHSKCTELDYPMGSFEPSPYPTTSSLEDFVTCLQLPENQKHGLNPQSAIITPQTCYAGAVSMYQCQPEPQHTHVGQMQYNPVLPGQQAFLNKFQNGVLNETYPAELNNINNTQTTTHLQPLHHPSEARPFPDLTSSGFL
Kind of series: AhR agonism luciferase reporter gene assay in transfected HepG2 cells. The series is classed as cell-based. To be noted: 16 h, ratio of treatment group to blank. How it is done:
When the cell confluence reached 80%, the culture medium was replaced with a fresh one, and the transfection working solution was added for transfection overnight. The formula of the working solution is as follows: 1 mL of Opti-MEM+7.5 μg of pCMV-AHR+7.5 μg of pTK-3×DRE-Luc+30 μL of lipo6000. • (2) Cell plating: The transfected cells were digested, prepared into a cell suspension at a concentration of 3×10^5 cells/mL, and then plated on a 96-well plate at 100 µL/well for adherent culture overnight. • (3) Formulation
The prepared drug-containing culture media and a blank culture medium were added to the 96-well plate described above at 100 μL/well.
Background: A reporter such as luciferase makes a cellular process visible.

Series [2] is described as follows: Drug permeation rate test, in vitro diffusion through semipermeable membrane. The series is classed as in vitro ADME. To be noted: ointments: 2# 1.2 wt %, 6# 1.2 wt %, benvitimod 1.0 wt %, 32° C. How it is done: as §1
[drawing 90] • (1) Preparation of semipermeable membrane: The semipermeable membrane, which had been prepared in advance, was taken out from the refrigerator; • (2) Preparation of receiving liquid: 100 mL of polyethylene glycol 400 solution was brought to a final volume of 250 mL with normal saline. The mixture was mixed well and stored at 4° C. Before each permeation in the receiving compartment, the system was preheated to 32° C.; • (3) In vitro diffusion test: A drug transdermal diffusion apparatus was used to fix the processed semipermeable membrane between the supply and receiving compartments. A constant temperature water bath circulation at 32° C. was maintained. The system was equilibrated for 30 min. Upon each replacement of the receiving liquid, the air at the lower layer was exhausted. About 0.5 g of the ointment was evenly smeared in the supply compartment. The system was stirred with a magnetic stirring at a rotation speed of 600 r/min. At 0.5, 1, 2, 4, 6, and 24 h, 1 mL of sample liquid was taken out from the receiving compartment, and simultaneously, an equal amount of fresh receiving liquid at the same temperature was added;
The sampling time points were 0.5, 1, 2, 4, 6, and 24 h, and 1 mL of sample was directly transferred into a liquid phase vial. Simultaneously, an equal amount of fresh receiving liquid at the same temperature was added. The liquid phase detection was conducted to calculate the drug permeation rate.

A further series relates to atopic dermatitis. Kind of series: DNFB-induced atopic dermatitis mouse model (AD Score). Particulars: DNFB mice. In kind it is in vivo, BALB/C mice. Details: scale not given here. How it is done: 56 clean-grade BALB/C mice aged 6-8 weeks were subjected to 5 days of adaptive feeding and then randomized into 7 groups of 8 mice each: • A. Blank control group • B. Modeling+solvent group • C. Modeling+blank matrix group • D. Modeling+positive drug mometasone furoate group • E. Modeling+1 wt % of benvitimod group • F. […] The animal experiments were conducted in accordance with the Experimental Animal Feeding, Management and Use Guidelines of China Pharmaceutical University and in compliance with animal study ethics and regulations. As shown in the above procedures, the solvent control or DNFB was given in the morning for modeling; from day 5, the test compound ointment was administered once every afternoon at 50 mg/dose evenly on the skin surface. The specific administration method is as shown above; Specific procedures: […] Severity of atopic dermatitis was scored using the AD Score criteria The severity of the appearance of dermatitis was evaluated based on 4 indicators: A. erythema/bleeding; B. dryness; C. effusion/crusting; D. edema.

Another series concerns TNFa. Briefly: Regulatory effect on cytokine secretion in PHA-stimulated PBMCs: TNFa. Particulars: for TNFa: PBMCs, 15 μg/mL PHA, 24 h (PHA group 3649.21). The series is classed as cell-based. The method, then: (§2) • (1) Cells: […]; • (2) Cell plating and treatment: After the PBMCs were taken out from the liquid nitrogen tank and thawed, 80 μL of culture medium was added to a 96-well plate, and the cells were added at 200,000 cells/well. The culture media containing 2 μM or 0.2 μM compound 2 #, compound 6 #, or reference 1 # were added to the 96-well plate at 80 μL, at a final drug concentration of 1 μM or 0.1 μM per well. The plate was let stand for 1 h for pretreatment. After the pretreatment, the drug-containing medium was discarded, and 1 μM or 0.1 μM solution containing 15 μg/mL PHA (phytohemaggluyinin) was added at 80 μL/well. After 24 h of stimulation, the content of cytokines in the culture medium was detected. • Blank control group: The cells were treated with a normal culture medium with no drugs; • PHA group: A culture medium containing 15 μg/mL PHA but no compounds of the present disclosure was added at 80 μL/well.

For another series, the system named is IL4. Briefly: Regulatory effect on cytokine secretion in PHA-stimulated PBMCs: IL4. The series is classed as cell-based. To be noted: for IL4: PBMCs, 15 μg/mL PHA, 24 h (PHA group 9.42). How it is done: as §2

Regarding `Oc1cc(/C=C/c2ccc(F)cc2)cc(O)c1C1CCCC1` [Compound 2, (E)-2-cyclopentyl-5-(4-fluorostyryl)-1,3-benzenediol], the “24-hour drug permeation rate (rank order)” value in series [1] and in series [2] was “benvitimod >2 #>6 #” in each case. Further, the “AhR receptor agonistic fold” value amounted to 6.1 ± 0.6 fold at AhR (drug concentration 0.1 μM) and 37.9 ± 6.9 fold at AhR (drug concentration 1 μM). The “Back AD score” value in the series on atopic dermatitis (day 0, before ointment treatment (from day 5)) is 0.00 ± 0.00; with atopic dermatitis (day 4, before ointment treatment (from day 5)), 3.19 ± 0.75; in the series with atopic dermatitis (day 6, ointment 50 mg once daily from day 5 (1.2 wt % 2#/6#, 1 wt % benvitimod)), 5.63 ± 1.96; in the series with atopic dermatitis (day 8, ointment 50 mg once daily from day 5 (1.2 wt % 2#/6#, 1 wt % benvitimod)), 6.13 ± 1.96**^aab; in the series with atopic dermatitis (day 10, ointment 50 mg once daily from day 5 (1.2 wt % 2#/6#, 1 wt % benvitimod)), 5.31 ± 1.87**^aab. The results for the TNFa in the series with TNFa (0.1 μM) and in the series with TNFa (1 μM) were 1353.72 pg/mL and 941.41 pg/mL, respectively. Besides, in the series on TNFa (1 μM), the “inhibitory effect on TNFa relative to reference 1# (benvitimod)” value is listed as 2 folds. Also, the IL4 in the series with IL4 (0.1 μM) was determined as 5.19 pg/mL; with IL4 (1 μM) it was 4.30 pg/mL. In the series on IL4 (1 μM), the “inhibitory effect on IL4 relative to reference 1# (benvitimod)” value stood at 2 folds.
